Results from ChEMBL document CHEMBL3132841, “Synthesis and biological evaluation of coumarin1,2,3-triazoledithiocarbamate hybrids as potent LSD1 inhibitors” (Medchemcomm, 2014).
pIC50: −log10 of the molar value. Activity calls are given as the source filed them. No cut-off for these calls is given here.

Key:
[1] = biological target: Lysine-specific histone demethylase 1A (Homo sapiens, UniProt O60341)
Description: Inhibition of recombinant human LSD1 expressed in Escherichia coli BL21(DE3) using H3K4me2 as substrate by fluorescence assay

MGC-803 = assay: Effect on total H3 protein expression in human MGC803 cells at 0.1 to 0.5 uM after 48 hrs by Western blot analysis; format: functional, cell-based
[2] = biological target: T1, Amine oxidase [flavin-containing] B (Homo sapiens, UniProt P27338)
T1 sequence (P27338 whole entry): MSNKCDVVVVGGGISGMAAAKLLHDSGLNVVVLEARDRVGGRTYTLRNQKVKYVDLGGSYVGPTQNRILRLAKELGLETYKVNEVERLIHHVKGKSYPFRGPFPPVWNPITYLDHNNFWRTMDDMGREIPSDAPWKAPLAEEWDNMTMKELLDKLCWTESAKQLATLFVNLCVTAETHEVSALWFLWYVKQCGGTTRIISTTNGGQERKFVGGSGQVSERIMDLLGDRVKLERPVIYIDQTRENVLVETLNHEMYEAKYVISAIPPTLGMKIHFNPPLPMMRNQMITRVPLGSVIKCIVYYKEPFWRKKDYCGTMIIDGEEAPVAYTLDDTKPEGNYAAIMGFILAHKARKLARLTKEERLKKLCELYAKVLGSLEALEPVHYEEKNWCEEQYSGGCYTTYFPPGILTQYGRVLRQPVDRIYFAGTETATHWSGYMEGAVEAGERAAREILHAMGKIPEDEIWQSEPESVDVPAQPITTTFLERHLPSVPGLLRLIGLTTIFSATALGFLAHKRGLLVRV
Description: Inhibition of MAO-B (unknown origin)

[3] = biological target: T2, Amine oxidase [flavin-containing] A (Homo sapiens, UniProt P21397)
T2 sequence (P21397 whole entry): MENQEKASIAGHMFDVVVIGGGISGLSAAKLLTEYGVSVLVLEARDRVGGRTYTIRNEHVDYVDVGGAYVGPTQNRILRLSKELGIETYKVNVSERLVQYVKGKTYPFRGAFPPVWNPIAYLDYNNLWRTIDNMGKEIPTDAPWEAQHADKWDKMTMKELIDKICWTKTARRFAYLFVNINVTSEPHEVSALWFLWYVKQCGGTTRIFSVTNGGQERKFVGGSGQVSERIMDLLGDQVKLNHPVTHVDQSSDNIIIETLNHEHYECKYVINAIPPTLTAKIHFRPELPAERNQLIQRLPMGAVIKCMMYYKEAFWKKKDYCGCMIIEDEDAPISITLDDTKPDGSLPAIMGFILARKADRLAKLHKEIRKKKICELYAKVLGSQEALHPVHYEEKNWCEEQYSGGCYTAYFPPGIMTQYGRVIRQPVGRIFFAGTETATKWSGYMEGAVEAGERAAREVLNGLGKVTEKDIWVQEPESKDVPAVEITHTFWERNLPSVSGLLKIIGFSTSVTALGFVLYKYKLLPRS
Description: Inhibition of MAO-A (unknown origin)

SMILES	pIC50 [1]	other results
Cc1ccc2oc(=O)cc(Cn3cc(CSC(=S)N4CCN(C(=O)OC(C)(C)C)CC4)nn3)c2c1	< 3.90	–
CC(C)(C)OC(=O)N1CCN(C(=S)SCc2cn(Cc3cc(=O)oc4ccc(Cl)cc34)nn2)CC1	< 3.90	–
CC(C)(C)OC(=O)N1CCN(C(=S)SCc2cn(Cc3cc(=O)oc4cc(O)ccc34)nn2)CC1	–	Activity (MGC-803): inactive; pIC50 [2]: < 2.90; pIC50 [3]: < 2.90
CC(C)(C)OC(=O)N1CCN(C(=S)SCc2cn(Cc3cc4ccccc4oc3=O)nn2)CC1	< 3.90	–

Second part, led by results:

pIC50 [1]	SMILES	other results
3.99	CC(C)(C)OC(=O)N1CCN(C(=S)SCc2cn(Cc3cc4ccc(O)cc4oc3=O)nn2)CC1	–
< 3.90	Cc1cc(O)cc2oc(=O)cc(Cn3cc(CSC(=S)N4CCN(C(=O)OC(C)(C)C)CC4)nn3)c12	–
